# Literature values as cited in patent publication US20210113461A1, “Methods of Treating Fungal Infections” (CIPLA TECHNOLOGIES LLC, priority 2018, published 2021).
# Like-named read-outs stand apart in the source and are kept apart here.
# Columns and labels:
# [1] = oral solution
# [2] = test system: plasma protein
smiles,measurement,setting,value
"CCC(C)n1ncn(-c2ccc(N3CCN(c4ccc(OCC5COC(Cn6cncn6)(c6ccc(Cl)cc6Cl)O5)cc4)CC3)cc2)c1=O (centres unmarked) [Itraconazole, itraconazole]",half-life at steady state,[1],39.7 ± 13 h
same,steady-state AUC0-24h under fasted conditions as % of exposure under fed conditions,[1],131±30%
same,mean AUC0-24h at steady-state,"[1]; 200 mg daily dose, fasted","29,271±10,285 ng·h/mL"
same,mean Cmax at steady-state,"[1]; 200 mg daily dose, fasted","1,963±601 ng/mL"
same,mean tmax at steady-state,"[1]; 200 mg daily dose, fasted",2.5 ± 0.8 h
same,increase of bioavailability under fasted conditions,[1]; healthy volunteers,30%
same,bound by plasma protein,[2]; capsules,99.6%
same,bound by plasma protein,[2]; oral solution,99.8%
